In ChEMBL document CHEMBL1156829 (Proc Natl Acad Sci U S A, 2008):

Legend:
[1] = NOVARTIS: Cytotoxicity against human hepatocellular carcinoma cell line (Huh7); format: toxicity, cell-based, Huh-7; conditions: Huh7 cells (hepatocellular carcinoma cell line)
[2] = system: Plasmodium falciparum; assay: NOVARTIS: Inhibition of Plasmodium falciparum 3D7 (drug-susceptible) proliferation in erythrocyte-based infection assay; format: functional, organism-based; conditions: Plasmodium falciparum, 3D7
[3] = system: Plasmodium falciparum; assay: NOVARTIS: Inhibition of Plasmodium falciparum W2 (drug-resistant) proliferation in erythrocyte-based infection assay; format: functional, organism-based; conditions: Plasmodium falciparum, W2; read-out: EC50

Row | SMILES | CC50 [1] | EC50 [2] | EC50 [3]
1 | Oc1c2c(nc3cc(-c4ccc(Br)cc4)nn13)CCCC2 | > 100000 nM | 522 nM | 1300 nM
2 | CC(C)(C)NC(=O)C(C1CC1)N1C(=O)c2cc(O)ccc2NC(=O)[C@@H]1CCCCN (stereo partly drawn) | > 10000 nM | > 1250 nM | 139 nM
3 | COc1ccc(-c2noc(CC(=O)Nc3ccccc3C#N)n2)cc1 | > 100000 nM | 6080 nM | 1380 nM
4 | CC(C)OC(=O)CSc1nnc(CNc2nc(-c3ccccc3)cs2)n1C | > 100000 nM | 1390 nM | 1380 nM
5 | COC(=O)CC(NC(=O)c1ccc(C)cc1)c1ccc2c(c1)OCO2 (stereo not drawn) | 15000 nM | > 1680 nM | 206 nM
6 | COC(=O)[C@@H]1C[C@@H](NC(=O)c2ccc(C)cc2)CN1Cc1ccc(OC)c(C)c1OC | > 10000 nM | 565 nM | 137 nM
7 | COc1cccc2c1OCC(CN1CCC(C(=O)Nc3ccc(-n4cccn4)cc3)CC1)=C2 | > 100000 nM | 817 nM | > 1360 nM
8 | Cc1cccc(C)c1OCC(=O)Nc1ccccc1O | > 100000 nM | 742 nM | 1360 nM
9 | O=S(=O)(Nc1ccc(F)cc1)N1CCCCCC1 | > 100000 nM | > 12500 nM | 1360 nM
10 | COc1cccc(NC(=O)c2ccc(NCCCC3CCCCCC3)c([N+](=O)[O-])c2)c1 | 28800 nM | 226 nM | 391 nM
11 | CCCCN(CCCC)CCCNc1ncnc2c1[nH]c1ccc(C)cc12 | 7410 nM | 148 nM | 100 nM
12 | COC(=O)[C@@H]1C[C@@H](NC(=O)c2ccc(OC)cc2OC)CN1Cc1cc(C)ccc1C | > 100000 nM | 1070 nM | 1320 nM
13 | NC(=NOC(=O)c1ccccc1I)c1ccccn1 | 63000 nM | 6030 nM | 831 nM
14 | CCN(c1ccc(OC)cc1)S(=O)(=O)c1ccc(C)cc1 | > 100000 nM | > 12500 nM | 1370 nM
15 | COC(=O)c1c(NC(=O)c2c(-c3ccccc3)noc2C)sc2c1CCC2 | > 100000 nM | 2980 nM | 1330 nM
16 | CCCc1c(C)nc2ccc(Br)cc2c1O | > 100000 nM | 1510 nM | 1340 nM
17 | COc1cc2c(cc1OC)C(COc1ccc(F)cc1)N(C(=O)c1ccc(OC(C)C)cc1)CC2 (stereo not drawn) | > 100000 nM | 155 nM | 1400 nM
18 | COc1cccc(C(C(=O)NC2CCCCC2)N(C(=O)c2snc(C(N)=O)c2N)c2ccc(C)cc2)c1OC (stereo not drawn) | > 100000 nM | 3440 nM | 1400 nM

Row | SMILES | CC50 [1] | EC50 [2] | EC50 [3]
19 | N#CCSc1ncccc1C(=O)NCCc1ccc(Oc2ccccc2)cc1 | > 10000 nM | 1630 nM | > 130 nM
20 | CN(C)/C=C1\Oc2ccccc2N=C1Cl | > 10000 nM | 153 nM | 132 nM
21 | c1ccc(-c2nn(-c3ccccc3)[n+](-c3cccc4ccccc34)n2)cc1 | > 10000 nM | > 417 nM | 131 nM
22 | Cc1nc(-c2cnccc2C(F)(F)F)sc1C(=O)NN | > 100000 nM | > 11000 nM | 1390 nM
23 | O=C(Nc1ccc(Cl)cc1Cl)c1ccc(-c2nc(-c3ccccc3Cl)cs2)cc1 | > 7930 nM | 150 nM | 106 nM
24 | CC(C)N1CCCc2cc(CN3CCC(n4cc(C(=O)NCCCO)nn4)CC3)ccc21 | > 10000 nM | > 1250 nM | 134 nM
25 | COc1ccccc1N1C(=N)S/C(=C/c2ccc(N(C)C)cc2)C1=O | > 10000 nM | 119 nM | 136 nM
26 | CCOc1ccc2[nH]c3c(NCCN(C)C)ncnc3c2c1 | 32500 nM | 773 nM | 437 nM
27 | COc1ccc(NC(=O)CN2CCN(S(=O)(=O)c3cccc([N+](=O)[O-])c3)CC2)c(OC)c1 | > 100000 nM | > 12500 nM | 1300 nM
28 | Cc1ccc(COc2ccc3c(C#N)c4ccccn4c3c2)cc1 | > 100000 nM | 2090 nM | 1370 nM
29 | Cc1ccc(C2CC(=O)N3CN(c4ccc(Br)cc4)CSC3=C2C#N)o1 (stereo not drawn) | > 100000 nM | > 12500 nM | 1350 nM
30 | CC(C)(C)CC(C)(C)Nc1c(-c2ccccc2OC(=O)c2cccc(C(F)(F)F)c2)nc2ccccn12 | > 10000 nM | 957 nM | 134 nM
31 | Oc1c2c(nc3cc(-c4ccc(-c5ccccc5)cc4)nn13)CCCC2 | > 73800 nM | 1140 nM | 1020 nM
32 | CC(=O)c1ccc(OCc2cc(C(=O)N3CCCCC3c3cccnc3)no2)cc1 (stereo not drawn) | > 100000 nM | 4210 nM | 1370 nM
33 | CC(=O)Nc1ccc(S(=O)(=O)N(C)CC(=O)NN=Cc2ccncc2)cc1 | > 100000 nM | > 5760 nM | 1360 nM
34 | Oc1cccc2ccc[n+](CC(O)Cn3c4ccccc4c4ccccc43)c12 (stereo not drawn) | 49200 nM | 199 nM | 651 nM
35 | CCOC(=O)c1ccc(OCC2c3cc(OC)c(OC)cc3CCN2C(=O)c2ccc([N+](=O)[O-])cc2)cc1 (stereo not drawn) | > 100000 nM | > 12500 nM | 1350 nM
36 | O=C(CNCCc1ccccc1)NC(c1ccccc1)c1ccccc1 | 45400 nM | 5960 nM | 623 nM
